Laboratory results published in patent US5625083A, “Dinitroglycerol esters of unsaturated fatty acids and prostaglandins” (priority 1995, dated 1997).
Read-outs that look alike come from different tables or passages of the source.

Experiments:
human platelets [1] = assay: ADP-induced aggregation of human platelets; type: cell-based; settings: for inhibition of ADP induced human platelet aggregation: moderate antiaggregating activity
Procedure: 1,3Dinitroglycerol ester of prostaglandin D2 inhibited aggregation of human platelets induced by ADP ([…]) in dose 0.1 mg/ml of plasma on 50%.

human platelets [2] = settings: parent compound, no own test described; cited from earlier work
isolated rat aorta [3] = assay: Isolated rat aorta relaxation / contraction; type: cell-based; settings: for EC50: Rattus norvegicus; for effect on isolated rat aorta: result in words
[4] = test system: rats with experimental hypercholesterolaemia; assay: Lipid spectrum of serum of rats with experimental hypercholesterolaemia; type: in vivo, rat; settings: 15 μg/kg intraperitoneally, 6 times per week, one month
Procedure: Lipids and lipid fractions in sera of rats with experimental hypercholesterolaemea were determined after one month of animal development with indicated drugs in a dose 15 μg/kg body weight intraperitoneally. 6 times per week. Rats not developed by drugs served as a control group.

mice [5] = assay: Mice survival under conditions of hypobaric hypoxia; type: in vivo; settings: Hypobary (9000 m); 1 mg/kg; control 18.5
Source text: (§1) INFLUENCE OF NITROPROSTON ON MICE SURVIVAL
UNDER CONDITIONS OF HYPOBARIC HYPOXIA AND

[6] = test system: volunteers and patients with bronchus obstruction; assay: Bronchodilation in volunteers and patients with bronchus obstruction; type: in vivo, human; settings: given as a spray (5-7×10^-3 mg per dose)
Source text: This raises the possibility of using NITROPROSTON to treat bronchospasms.

RAT STOMACH = assay: Rat stomach contraction; type: cell-based; settings: for EC50: Rattus norvegicus
isolated rat aorta [7] = assay: Stability of ethanolic solution of NITROPROSTON (relaxation of isolated rat aorta contracted with adrenaline after storage); type: cell-based; settings: read-out: Relaxation of isolated rat aorta contracted with adrenaline, ED5O
Source text: Stability of ethanolic solution of NITROPROSTON.
Relaxation of isolated rat aorta
months contracted with adrenaline, ED5O, M*10^-6

mice [8] = assay: Mice survival under toxic concentration of CO; type: in vivo
Source text: (§2) NITROPROSTON protected laboratory animals from a variety of noxious factors. It increased the survival of mice in an atmosphere with elevated CO or NO2 concentration: survival in the experimental group was 1.5-4 times higher than in the control group.
as §1
(§3) TOXIC CONCENTRATION OF CO OR NO2

mice [9] = assay: Mice survival under toxic concentration of NO2; type: in vivo; settings: NO2 (700 mg/m^3); 1 mg/kg; control 17
Source text: as §2, §1, §3

heart rate = assay: Heart rate and tachyphylaxis in experimental animals; type: in vivo
rat and rabbit tissues = assay: Hypertensive activity in experiments with rat and rabbit tissues; settings: relative to parent PGE2
mice [10] = assay: Toxicity in mice; type: in vivo
[11] = test system: rats with experimental hypercholesterolaemia; assay: Peroxidation of serum or tissue lipids (MDA) of rats with experimental hypercholesterolaemia; type: in vivo, rat; settings: 15 μg/kg intraperitoneally, 6 times per week, one month
Procedure: MDA contents as a parameter of lipid peroxidation were estimated after one month of animal development with indicated drugs in a dose 15 μg/kg body weight intraperitoneally, 6 times per week. Rats not developed by drugs served as a control.

RAT UTERUS = assay: Rat uterus contraction; type: cell-based; settings: for EC50: Rattus norvegicus
GUINEA PIG TRACHEA = assay: Isolated guinea pig trachea relaxation / contraction; type: cell-based; settings: for EC50: Cavia porcellus
RAT COLON = assay: Rat colon contraction; type: cell-based; settings: for EC50: Rattus norvegicus
[12] = read-out: ISOLATED RAT AORTA relaxation, EC50
[13] = relaxation, read-out: vasodilating effect on the isolated rat aorta, EC50
[14] = read-out: RAT UTERUS, contraction, EC50
[15] = read-out: GUINEA PIG TRACHEA relaxation, EC50
[16] = compared with prostaglandin F2α
[17] = contraction, read-out: stimulating rat uterine contractions, EC50

Structure (SMILES): CCC=CCC=CCC=CCC=CC=CC(O)CCCC(=O)OCC(CO[N+](=O)[O-])O[N+](=O)[O-] (centres unmarked) [dinitroglycerol ester of 5-hydroxyeicosapentaenoic acid]
- inhibition of ADP induced human platelet aggregation (human platelets [1]): 30-50%

Structure (SMILES): CC/C=C\C/C=C\C/C=C\C/C=C\C/C=C\C/C=C\CCC(=O)OC(CO[N+](=O)[O-])CO[N+](=O)[O-] [1,3-dinitroglycerol ester of docosahexaenoic acid]
- inhibition of ADP induced human platelet aggregation (human platelets [1]): 30-50%

Structure (SMILES): CCCCC/C=C\C/C=C\C/C=C\C/C=C\CCCC(=O)O [arachidonic acid]
- effect on platelet aggregation (parent acid) (human platelets [2]): powerful inducer of platelet aggregation

Structure (SMILES): CCCCC[C@H](O)/C=C/[C@H]1[C@H](O)CC(=O)[C@@H]1CCCCCCC(=O)OC(CO[N+](=O)[O-])CO[N+](=O)[O-] [PROSTANIT, 1,3-dinitroglycerol ester of prostaglandin E1]
- EC50 (isolated rat aorta [3]; relaxation, read-out: relaxing effect on the isolated rat aorta, EC50): 2.1 µM
- IC50 (human platelets [1]; Homo sapiens, Platelet, read-out: inhibition of ADP-induced aggregation of human platelets, IC50): 0.19 µM
- HDL cholesterol (HDLC), changes of the contents (%, relative to control) [4]: 76%
- HDLC/TSC, changes (%, relative to control) [4]: 122%
- LDL cholesterol, changes of the contents (%, relative to control) [4]: 70%
- Total lipids, changes of the contents (%, relative to control) [4]: 72%
- Total serum cholesterol (TSC), changes of the contents (%, relative to control) [4]: 78%
- Triglicerides, changes of the contents (%, relative to control) [4]: 72%

Structure (SMILES): CCCCC[C@H](O)/C=C/[C@H]1[C@H](O)CC(=O)[C@@H]1C/C=C\CCCC(=O)OC(CO[N+](=O)[O-])CO[N+](=O)[O-] [NITROPROSTON, 1,3-dinitroglycerol ester of prostaglandin E2]
- Survival, % (mice [5]): 82%
- EC50 (isolated rat aorta [3]; [12]): 0.68 ± 0.12 µM
- EC50 (isolated rat aorta [3]; [13]): 0.68 µM
- bronchodilation in volunteers and patients with bronchus obstruction [6]: potent, effective bronchodilator
- EC50 (RAT STOMACH): 0.06 ± 0.01 µM
- EC50 (isolated rat aorta [7]; time of storage 1 month): 1.54 ± 0.21 µM
- EC50 (isolated rat aorta [7]; time of storage 12 months): 1.77 ± 0.148 µM
- Survival, % (mice [8]; CO (11 g/m^3), 1 mg/kg, control 41): 66%
- survival in the experimental group, times higher than in the control group (mice [8]; mice, atmosphere with elevated CO or NO2 concentration): 1.5-4 times
- Survival, % (mice [9]): 65%
- effect on heart rate (heart rate): did not affect the heart rate
- tachyphylaxis (heart rate): no tachyphylaxis was observed
- hypertensive activity, times higher than that of the parent PGE2 (rat and rabbit tissues): 5 times
- HDL cholesterol (HDLC), changes of the contents (%, relative to control) [4]: 123%
- HDLC/TSC, changes (%, relative to control) [4]: 128%
- LDL cholesterol, changes of the contents (%, relative to control) [4]: 57%
- Total lipids, changes of the contents (%, relative to control) [4]: 67%
- Total serum cholesterol (TSC), changes of the contents (%, relative to control) [4]: 95%
- Triglicerides, changes of the contents (%, relative to control) [4]: 95%
- LD50 (mice [10]): > 100 mg
- MDA level (%, relative to control), Aorta [11]: 44%
- MDA level (%, relative to control), Liver [11]: 77%
- MDA level (%, relative to control), Serum [11]: 85%
- EC50 (RAT UTERUS; [14]): 0.4 ± 0.1 µM
- EC50 (GUINEA PIG TRACHEA; [15]): 0.007 µM
- EC50 (GUINEA PIG TRACHEA; relaxation, read-out: bronchodilating activity, EC50 in isolated guinea pig trachea): 0.00718 µM

Structure (SMILES): CCCCC[C@H](O)/C=C/[C@H]1[C@H](O)CC(=NO)[C@@H]1CCCCCCC(=O)OC(CO[N+](=O)[O-])CO[N+](=O)[O-] [NITROPROX, 1,3-dinitroglycerol ester of 9-oxyiminoprostaglandin E1]
- EC50 (isolated rat aorta [3]; [13]): 0.64 µM
- IC50 (human platelets [1]; Homo sapiens, Platelet, read-out: antiaggregating properties, IC50, ADP-induced aggregation of human platelets): 1.1 µM
- HDL cholesterol (HDLC), changes of the contents (%, relative to control) [4]: 114%
- HDLC/TSC, changes (%, relative to control) [4]: 138%
- LDL cholesterol, changes of the contents (%, relative to control) [4]: 76%
- Total lipids, changes of the contents (%, relative to control) [4]: 92%
- Total serum cholesterol (TSC), changes of the contents (%, relative to control) [4]: 96%
- Triglicerides, changes of the contents (%, relative to control) [4]: 79%
- MDA level (%, relative to control), Aorta [11]: 32%
- MDA level (%, relative to control), Liver [11]: 104%
- MDA level (%, relative to control), Serum [11]: 101%

Structure (SMILES): CCCCC[C@H](O)/C=C/[C@@H]1[C@@H](C/C=C\CCCC(=O)OC(CO[N+](=O)[O-])CO[N+](=O)[O-])[C@@H](O)C[C@H]1O [NITROPROST-F, 1,3-dinitroglycerol ester of prostaglandin F2α]
- EC50 (isolated rat aorta [3]; [12]): 0.54 ± 0.19 µM
- EC50 (RAT STOMACH): 0.13 ± 0.01 µM
- activity in rat stomach contraction (RAT STOMACH; [16]): lower activity
- EC50 (RAT COLON): 0.175 ± 0.07 µM
- effectiveness on rat colon (RAT COLON; [16]): as effective as prostaglandin F2α
- EC50 (RAT UTERUS; [17]): 0.009 µM
- EC50 (RAT UTERUS; [14]): 0.009 ± 0.0017 µM
- effectiveness in stimulating rat uterine contractions, times more than prostaglandin F2α (RAT UTERUS; relative to prostaglandin F2α): more than 10 times
- EC50 (GUINEA PIG TRACHEA; [15]): 10 ± 1.5 µM

Structure (SMILES): CCCCC[C@H](O)/C=C/[C@H]1C(=O)C[C@H](O)[C@@H]1C/C=C\CCCC(=O)OC(CO[N+](=O)[O-])CO[N+](=O)[O-] [1,3-dinitroglycerol ester of prostaglandin D2]
- inhibition at 100 µg/mL (human platelets [1]; Homo sapiens, Platelet, ADP (1×10M), dose 0.1 mg/ml of plasma): 50%

Structure (SMILES): CC/C=C\C/C=C\C/C=C\CCCCCCCC(=O)OC(CO[N+](=O)[O-])CO[N+](=O)[O-] [1,3-dinitroglycerol ester of 9,12,15-octadecatrienoic acid]
- inhibition of ADP induced human platelet aggregation (human platelets [1]): 30-50%

Structure (SMILES): CCCCC[C@H](O)/C=C/[C@@H]1[C@@H](C/C=C\CCCC(=O)O)[C@@H](O)C[C@H]1O [PGF2α, prostaglandin F2α, reference compound]
- effect on isolated rat aorta (isolated rat aorta [3]): contraction
- EC50 (RAT STOMACH): 0.05 ± 0.015 µM
- EC50 (RAT COLON): 0.13 ± 0.071 µM
- EC50 (RAT UTERUS; [17]): 0.11 µM
- EC50 (RAT UTERUS; [14]): 0.11 ± 0.04 µM
- effect on isolated guinea pig trachea (GUINEA PIG TRACHEA; result in words): contraction

Structure (SMILES): CCCCC[C@H](O)/C=C/[C@H]1[C@H](O)CC(=O)[C@@H]1C/C=C\CCCC(=O)O [PGE2, prostaglandin E2, reference compound]
- EC50 (isolated rat aorta [3]; read-out: ISOLATED RAT AORTA contraction, EC50): 84 ± 1 µM
- effect on isolated rat aorta (isolated rat aorta [3]): induced muscle contraction
- EC50 (RAT STOMACH): 0.04 ± 0.015 µM
- EC50 (RAT UTERUS; [14]): 0.08 ± 0.016 µM
- EC50 (GUINEA PIG TRACHEA; [15]): 0.14 ± 0.08 µM

Structure (SMILES): CCCCC/C=C\C/C=C\C/C=C\C/C=C\CCCC(=O)OC(CO[N+](=O)[O-])CO[N+](=O)[O-] [1,3-dinitroglycerol ester of arachidonic acid]
- inhibition of aggregation of human platelets induced by ADP (human platelets [1]; ADP (1×10^-5), dose 0.1 mg/ml of plasma): almost completely inhibited
